Measured values from article PMC11434868, “Synthesis and Antiproliferative Effect of 3,4,5-Trimethoxylated Chalcones on Colorectal and Prostatic Cancer Cells” (Pharmaceuticals, 2024).
Read-outs that look alike come from different tables or passages of the source.

Tests used:
PC3 = assay: MTT assay, antiproliferative effect on PC3; format: cell-based; conditions: Homo sapiens
Protocol: (§1) Human CRC (HCT116 and HT-29) and PCa (DU145 and PC3) cell lines were purchased from the American Type Culture Collection (ATCC—LGC Standards, Molsheim, France). All cells were grown in RPMI 1640 medium supplemented with 10% FBS, 1% L-glutamine, 100 U/mL penicillin, and 100 μg/mL streptomycin. Cultures were maintained in a humidified atmosphere containing 5% CO2 at 37 °C. Cells were seeded in 75 cm^2 culture flasks at 1.2 × 10^4 cells/cm^2 for HCT116, DU145, and PC3 cells, and 2.0 × 10^4 for HT-29 cells. Cells were grown for 24 h in culture medium prior to exposure or not to obtain the synthesized compounds. Stock solutions (10^−2 M in DMSO) of each compound were diluted in culture medium to obtain appropriate final concentrations.
(§2) • (a) MTT assay: The antiproliferative effect of all compounds was determined using MTT assay (a metabolic activity test). Briefly, cells were seeded in 96-well culture plates at 4 × 10^3 cells/well for HCT116, PC3, and DU145 cells and 6 × 10^3 cells/well for HT-29 cells (100 µL/well), and grown for 24 h in culture medium prior to exposure or not to obtain compounds 1–15 with concentrations ranging from 5 nM to 50 μM. After 24 and 48 h of treatment, MTT (5 mg/mL in PBS) was added and incubated for another 3 h. MTT was then removed from the wells before adding 100 μL/well of DMSO. The optical density was detected with a microplate reader (Multiskan FC, Thermoscientific, Bordeaux, France) at 550 nm and cell viability was expressed as a percentage of each treatment condition compared to control cells. IC50 values were calculated for all compounds from the dose–response curve. Data are expressed as the arithmetic means ± standard error of the mean (SEM) of separate experiments. All experiments were performed at least in triplicate. • (b) Trypan blue dye exclusion method: Cells were grown for 24 h then treated with compounds 10 and 13 at indicated concentrations. After 48 h of treatment, cells were trypsinized and resuspended in complete medium. Each sample was mixed with Trypan blue solution (0.14% in HBSS, Invitrogen-GIBCO, ThermoFisher, Illkirch, France). Colored (non-viable) and dye-excluding (viable) cells were counted with the LUNA-II automated cell Counter (Logos Biosystems; MC2, Aubière, France). The control was normalized to 100% including viable and dead cells. The results indicated on the histograms were expressed as the percentage of cells compared to the control. IC50 values were determined from the percentages of viable cells compared to the control.

DU145 = assay: MTT assay, antiproliferative effect on DU145; format: cell-based; conditions: Homo sapiens
Protocol: as §1, §2

HT-29 = assay: MTT assay, antiproliferative effect on HT-29; format: cell-based, human
Protocol: as §1, §2

HCT116 = assay: MTT assay, antiproliferative effect on HCT116; format: cell-based; conditions: Homo sapiens
Protocol: as §1, §2

[1] = tested on: cellular microtubules in HeLa cells; assay: Quantitative assay of the cellular microtubule content (immunoluminescence); format: cell-based; conditions: 30 min incubation
Protocol: The assay was realized as described by Laisne et al.. Briefly, 7500 HeLa cells were seeded in 96-well microplates (#655086, Greiner bioOne, Courtaboeuf, France) in 100 µL of complete medium per well and then incubated at 37 °C in 5% CO2 for 24 h. Cells were then treated for 30 min at 37 °C with the compounds at concentrations ranging from 0.1 to 1000 µM (1 microplate per molecule, 1 concentration per column), with 0.1% DMSO used as […] (6 wells per microplate). After medium aspiration, treated cells were permeabilized for 10 min using 100 µL per well of warmed (37 °C) OPT buffer (80 mM Pipes, 1 mM EGTA, 1 mM MgCl2, 0.5% Triton X-100, and 10% glycerol, pH 6.8). Cells were fixed overnight at room temperature using 100 µL per well of 4% formaldehyde (Sigma Aldrich, #252549, Saint-Quentin-Fallavier, France) in PBS. Cells were washed 3 times in PBS, 0.1% Tween-20 (100 µL per well), then primary anti-alpha-tubulin antibody (clone α3A1), 1:5000 in PBS 2% Bovine Serum Albumin (BSA), was added for 45 min. Cells were washed twice again and secondary anti-mouse antibody coupled to HRP (1:2000 in PBS 2% BSA, #715-035-150, Jackson Immuno-Research Laboratories, Cambridgeshire, UK) was added for 45 min. Then, cells were washed again with PBS and 100 µL of ECL substrate (#170-5061, Bio-Rad Laboratories Inc., Hercules, CA, USA) was injected in each well using the FLUOstar OPTIMA Microplate Reader (BMG Lab technology, Champagny-sur-Marne, France). The luminescent signal was read immediately after ECL injection. IC50 values were calculated using GraphPad Prism software (10.3.1 version) and are presented in the text as means ± SEM of three independent experiments.

[2] = tested on: human CRC (HCT116 and HT-29) and human PCa (DU145 and PC3) cell lines; assay: MTT assay, summary statements over the cell lines; format: cell-based; conditions: Homo sapiens, 48 h; read-out: IC50 over the four cell lines
Protocol: as §1, §2

[3] = PC-3, 24 h, read-out: IC50 PC3 24 h
[4] = PC-3, 48 h, read-out: IC50 PC3 48 h
[5] = DU-145, 24 h, read-out: IC50 DU145 24 h
[6] = DU-145, 48 h, read-out: IC50 DU145 48 h
[7] = Homo sapiens, HT-29, 24 h, 24 h, read-out: IC50 HT-29 24 h
[8] = Homo sapiens, HT-29, 48 h, 48 h, read-out: IC50 HT-29 48 h
[9] = HCT-116, 24 h, read-out: IC50 HCT116 24 h
[10] = HCT-116, 48 h, read-out: IC50 HCT116 48 h
[11] = 48 h, read-out: IC50 HT-29 48 h

| Compound | IC50 (PC3; [3]) [µM] | IC50 (PC3; [4]) [µM] | IC50 (DU145; [5]) [µM] | IC50 (DU145; [6]) [µM] | IC50 (HT-29; [7]) [µM] | IC50 (HT-29; [8]) [µM] | IC50 (HCT116; [9]) [µM] | IC50 (HCT116; [10]) [µM] | IC50 depolymerization of cellular microtubules [1] | IC50 (HT-29; [11]) [µM] | melting point [°C] | IC50 [2] [µM] | activity against the HT-29 cell line (HT-29) |
| --- | --- | --- | --- | --- | --- | --- | --- | --- | --- | --- | --- | --- | --- |
| COc1cc(C(=O)/C=C/c2ccccc2O)cc(OC)c1OC [chalcone 1, (E)-3-(2-hydroxyphenyl)-1-(3,4,5-trimethoxyphenyl)prop-2-en-1-one] | 5.04 ± 0.29 | 4.23 ± 0.35 | 5.33 ± 0.42 | 3.6 ± 0.1 | 10.8 ± 0.57 | 9.65 ± 0.12 | 4.54 ± 0.65 | 3.27 ± 0.11 | – | – | – | – | – |
| COc1cc(C(=O)/C=C/c2ccc(O)cc2)cc(OC)c1OC [chalcone 3, (E)-3-(4-hydroxyphenyl)-1-(3,4,5-trimethoxyphenyl)prop-2-en-1-one] | 10.94 ± 0.1 | 9.85 ± 0.43 | 11.3 ± 0.48 | 11.2 ± 0.44 | 17.9 ± 0.69 | 15.1 ± 0.46 | 11.62 ± 0.06 | 12.1 ± 0.44 | no effect | – | – | – | – |
| COc1cc(O)ccc1/C=C/C(=O)c1cc(OC)c(OC)c(OC)c1 [chalcone 4, (E)-3-(4-hydroxy-2-methoxyphenyl)-1-(3,4,5-trimethoxyphenyl)prop-2-en-1-one] | 4.8 ± 0.48 | 3.05 ± 0.12 | 4.2 ± 0.2 | 2.69 ± 0.22 | 21.3 ± 0.94 | 17.7 ± 0.29 | 8.79 ± 0.39 | 3.98 ± 0.22 | – | – | – | – | – |
| COc1ccc(O)cc1/C=C/C(=O)c1cc(OC)c(OC)c(OC)c1 [chalcone 5, (E)-3-(5-hydroxy-2-methoxyphenyl)-1-(3,4,5-trimethoxyphenyl)prop-2-en-1-one] | 5.54 ± 0.31 | 4 ± 0.3 | 5.5 ± 0.26 | 4.37 ± 0.3 | 25.2 ± 1.28 | > 20 | 8.72 ± 0.41 | 4.92 ± 0.49 | – | 22.1 ± 0.48 | – | – | – |
| COc1ccc(O)c(/C=C/C(=O)c2cc(OC)c(OC)c(OC)c2)c1 [chalcone 6, (E)-3-(2-hydroxy-5-methoxyphenyl)-1-(3,4,5-trimethoxyphenyl)prop-2-en-1-one] | 3.31 ± 0.22 | 2.81 ± 0.16 | 2.84 ± 0.14 | 2.7 ± 0.1 | 12.3 ± 0.37 | 10.6 ± 0.62 | 5.27 ± 0.37 | 3.44 ± 0.42 | – | – | – | – | – |
| COc1ccc(/C=C/C(=O)c2cc(OC)c(OC)c(OC)c2)c(O)c1 [chalcone 7, (E)-3-(2-hydroxy-4-methoxyphenyl)-1-(3,4,5-trimethoxyphenyl)prop-2-en-1-one] | 2.57 ± 0.44 | 1.47 ± 0.27 | 2.99 ± 0.33 | 1.33 ± 0.16 | 14.4 ± 0.65 | 11.4 ± 0.68 | 13.4 ± 0.21 | 3.99 ± 0.16 | – | – | – | – | – |
| COc1cc(/C=C/C(=O)c2cc(OC)c(OC)c(OC)c2)ccc1O [chalcone 9, (E)-3-(4-hydroxy-3-methoxyphenyl)-1-(3,4,5-trimethoxyphenyl)prop-2-en-1-one] | 4.42 ± 0.24 | 2.97 ± 0.13 | 3.75 ± 0.15 | 2.41 ± 0.08 | 32.6 ± 0.51 | > 20 | 8.58 ± 0.28 | 3.48 ± 0.19 | – | 26.8 ± 0.4 | – | – | – |
| COc1cc(C(=O)/C=C/c2ccc(=O)[nH]c2)cc(OC)c1OC [chalcone 11, (E)-5-(3-oxo-3-(3,4,5-trimethoxyphenyl)prop-1-en-1-yl)pyridin-2(1H)-one] | 24.5 ± 0.64 | 17.7 ± 0.55 | 22.3 ± 0.76 | 15.6 ± 0.84 | 35.6 ± 0.94 | > 20 | 25.2 ± 0.48 | 16.6 ± 0.79 | – | 23.6 ± 0.37 | 217 to 219 | > 15 | – |
| COc1cc(C(=O)/C=C/c2coc3ccccc3c2=O)cc(OC)c1OC [chalcone 12, (E)-3-(3-oxo-3-(3,4,5-trimethoxyphenyl)prop-1-en-1-yl)-4H-chromen-4-one] | 11.5 ± 0.28 | 12.2 ± 0.23 | 10.8 ± 0.34 | 11.7 ± 0.29 | 13.6 ± 0.3 | 13.2 ± 0.42 | 14.2 ± 0.41 | 13.2 ± 0.4 | – | – | 215 to 217 | – | – |
| COc1cc(C(=O)/C=C/c2coc3ccc(C(C)C)cc3c2=O)cc(OC)c1OC [chalcone 14, (E)-6-isopropyl-3-(3-oxo-3-(3,4,5-trimethoxyphenyl)prop-1-en-1-yl)-4H-chromen-4-one] | 14.11 ± 0.04 | 12.8 ± 0.37 | 13.2 ± 0.49 | 12.4 ± 0.2 | 22.9 ± 0.72 | 17 ± 1.41 | 15.3 ± 0.52 | 13.3 ± 0.3 | – | – | 183 to 185 | – | – |
| COc1cc(C(=O)/C=C/c2coc3ccc(O)cc3c2=O)cc(OC)c1OC [chalcone 15, (E)-6-hydroxy-3-(3-oxo-3-(3,4,5-trimethoxyphenyl)prop-1-en-1-yl)-4H-chromen-4-one] | 6.48 ± 0.4 | 7.6 ± 0.44 | 3.88 ± 0.32 | 7.09 ± 0.52 | > 50 | – | 5.84 ± 0.28 | 14.1 ± 0.27 | – | – | – | – | not active |
